Laboratory results as given in patent publication US4874773A, “3-Aminocarbonyl-1,4-dihydropyridine-5-carboxylic acid compounds, and pharmaceutical composition containing the same” (priority 1985, dated 1989).
Like-named read-outs stand apart in the source and are kept apart here.

Legend:
isolated aorta = assay: Experiment 3 Relaxing activity on the isolated aorta (30 mM KCl contracted); parameters: species or system Japanese white rabbit; conditions: for EC50: Oryctolagus cuniculus, 30 mM KCl contraction, maximum relaxation by papaverine = 100%, read-out: EC50 (concentration for 50% relaxation); for relaxing / vasodilating activity on isolated aorta (in words): Table 8, comparison with nifedipine and nicardipine hydrochloride, etc. where stated
Experimental: Japanese white rabbit (weighing 2.3-2.7 kg) was sacrificed by bleeding from common carotid artery. Immediately, the aorta was isolated and cut into a sprial strip. The strip preparation was vertically suspended under a resting tension of 2.0 g in a tissue bath containing 20 ml of modified Ringer solution while bubbling with a mixture of 95% O2 +5% CO2 by connecting one end of the strip to a lever of the above-mentioned FD pick up. The aortic strip was contracted with 30 mM KCl. When the contraction became constant, the test compound was accumulatively administered, and the relaxing effect was measured. After the final treatment, 10^-4T M papaverine was administered and the maximum relaxation obtained thereby was taken as 100%. In comparison with the maximum relaxation obtained by papaverine, the rate of relaxation by the test compounds was evaluated, and the concentration of the test compounds for obtaining 50% relaxation (EC50) was calculated.
The test compound was dissolved in ethanol, and the solution was diluted in 100 to 1×10^4 folds with a nutrient solution, and the diluted solution was administered.

[1] = test system: Spontaneously hypertensive male rats; assay: Experiment 1-1 Hypotensive activity (oral, conscious spontaneously hypertensive rats); format: in vivo, rat; conditions: 10 mg/kg oral; for Maximum hypotension: mean blood pressure
Experimental: Spontaneously hypertensive male rats (13-15 week age, one group: 3 rats) were used. […] The rats were fixed in a Howlman cage without fasting, and the femoral arterial pressure was measured by a direct method without anesthesia with a cannula which was previously inserted into the femoral artery of the animal, via a pressure transducer (MPU-0.5, manufactured by Nippon Koden K.K.). The test compounds were orally administered in the form of a suspension in 0.5% methyl cellulose solution in a dose of 10 mg/kg (in some compounds, 3 mg/kg). In the control group, only 0.5% methyl cellulose solution was administered likewise. The blood pressure was measured for 5 hours after the administration of test compounds.

isolated heart [2] = assay: Experiment 2-1 Activity on isolated heart; parameters: species or system Japanese white rabbit; conditions: Oryctolagus cuniculus, 3 μg/heart; for activation at 3 µg/heart: read-out: Increase of coronary perfusion; for inhibition at 3 µg/heart, 3 µg/heart: read-out: Inhibitory rate of systole; for inhibition at 3 µg/heart: read-out: Reducing rate of heart pulse
Experimental: Japanese white rabbit (weighing 2.2-2.5 kg) was anesthetized by introvenous injection of nembutal (20 mg/kg) and then sacrificed by bleeding from common carotid artery. […] After stabilizing the heart preparation for 90 minutes, the test compound was administered. There were measured the perfusion volume with a drop-counting meter (ET-600G type, manufactured by Nippon Koden K.K.) and the heart pulse and the contractility via a force-displacement transducer (FD pick up, SB-IT type, manufactured by Nippon Koden K.K.) (for measuring heart pulse, an instant pulse meter (AT-601G type, minufactured by Nippon Koden K.K.) being further used).

isolated heart [3] = assay: Experiment 2-2 Activity onto the isolated heart (with duration); parameters: species or system Japanese white rabbit; conditions: for Coronary perfusion Duration: time until perfusion volume returned to initial level; for activation at 3 µg/heart / inhibition at 3 µg/heart / activation at 1 µg/heart / inhibition at 1 µg/heart: Oryctolagus cuniculus; for activation at 3 µg/heart / activation at 1 µg/heart: read-out: Coronary perfusion Increase
Experimental: Japanese white rabbit (weighing 2.2-2.5 kg) was anesthetized by introvenous injection of nembutal (20 mg/kg) and then sacrificed by bleeding from common carotid artery. […] There were measured the perfusion volume with a drop-counting meter (ET-600G type, manufactured by Nippon Koden K.K.) and the heart pulse and the contractility via a force-displacement transducer (FD pick up, SB-IT type, manufactured by Nippon Koden K.K.) (for measuring heart pulse, an instant pulse meter (AT-601G type, minufactured by Nippon Koden K.K.) being further used).
The test compounds were dissolved in ethanol, and the solution was diluted in 100-fold with purified water, and the diluted solution was administered in an amount of 0.1 ml/heart (i.e. 3 μg/heart).
The activity was measured in the same manner as described in Experiment 2-1 except that in some test compounds, the dose was in 1 μg/heart. Besides, the duration of the activity was evaluated by counting the time until the coronary perfusion volume became to the initial level before the administration of the test compound.

[4] = 3 μg/heart, read-out: Inhibitory rate of systole
[5] = 3 μg/heart, read-out: Reducing rate of heart pulse
[6] = 1 μg/heart, read-out: Inhibitory rate of systole
[7] = 1 μg/heart, read-out: Reducing rate of heart pulse

EC50 (isolated aorta) [nM] | Compound | Coronary perfusion Duration (isolated heart [3]; 3 μg/heart) [min] | activation at 3 µg/heart (isolated heart [3]; 3 μg/heart) [%] | inhibition at 3 µg/heart (isolated heart [3]; [4]) [%] | inhibition at 3 µg/heart (isolated heart [3]; [5]) [%] | also measured
> 1000 | COC(=O)C1=C(C)NC(C)=C(C(N)=O)C1c1ccccc1[N+](=O)[O-] (centres unmarked) [C, reference compound] | – | – | – | – | Recovering time [1]: 2.0 h; Time for recovering 1/2 of max. hypotension [1]: 1.5 h; Time until reaching to max. hypotension [1]: 15 min; Maximum hypotension [1]: 20 mmHg; activation at 3 µg/heart (isolated heart [2]): 16%; inhibition at 3 µg/heart, 3 µg/heart (isolated heart [2]): 17%; inhibition at 3 µg/heart (isolated heart [2]): 7%
– | CCNC(=O)C1=C(C)NC(C)=C(C(=O)OC)C1c1ccccc1[N+](=O)[O-] (centres unmarked) [D, reference compound] | – | – | – | – | activation at 3 µg/heart (isolated heart [2]): 20%; inhibition at 3 µg/heart, 3 µg/heart (isolated heart [2]): 15%; inhibition at 3 µg/heart (isolated heart [2]): 5%
> 1000 | CCOC(=O)C1=C(C)NC(C)=C(C(=O)N(C)C)C1c1cccc([N+](=O)[O-])c1 (centres unmarked) [E, reference compound] | – | – | – | – | Recovering time [1]: 1.0 h; Time for recovering 1/2 of max. hypotension [1]: 0.5 h; Time until reaching to max. hypotension [1]: 15 min; Maximum hypotension [1]: 5 mmHg; activation at 3 µg/heart (isolated heart [2]): 0%; inhibition at 3 µg/heart, 3 µg/heart (isolated heart [2]): 0%; inhibition at 3 µg/heart (isolated heart [2]): 1%
670 | CCOC(=O)C1=C(C)NC(C)=C(C(N)=O)C1c1ccccc1[N+](=O)[O-] (centres unmarked) [Example 9] | – | – | – | – | –
400 | CCCOC(=O)C1=C(C)NC(C)=C(C(N)=O)C1c1ccccc1[N+](=O)[O-] (centres unmarked) [Example 10] | – | – | – | – | –
320 | CC1=C(C(N)=O)C(c2ccccc2[N+](=O)[O-])C(C(=O)OC(C)C)=C(C)N1 (centres unmarked) [Example 11] | – | – | – | – | –
610 | CCCCCOC(=O)C1=C(C)NC(C)=C(C(N)=O)C1c1ccccc1[N+](=O)[O-] (centres unmarked) [Example 16] | – | – | – | – | –
710 | CC1=C(C(N)=O)C(c2ccccc2[N+](=O)[O-])C(C(=O)OC(C)C(C)C)=C(C)N1 (centres unmarked) [Example 18] | – | – | – | – | –
31 | CCNC(=O)C1=C(C)NC(C)=C(C(=O)OCCC(C)C)C1c1ccccc1[N+](=O)[O-] (centres unmarked) [Example 33] | – | – | – | – | relaxing / vasodilating activity on isolated aorta (in words) (isolated aorta): the same or more potent activity
40 | CCCCCOC(=O)C1=C(C)NC(C)=C(C(=O)NCCC)C1c1ccccc1[N+](=O)[O-] (centres unmarked) [Example 39] | – | – | – | – | relaxing / vasodilating activity on isolated aorta (in words) (isolated aorta): the same or more potent activity
– | CCCNC(=O)C1=C(C)NC(C)=C(C(=O)OCCC(C)C)C1c1ccccc1[N+](=O)[O-] (centres unmarked) [Example 40] | – | – | – | – | activation at 3 µg/heart (isolated heart [2]): 25%; inhibition at 3 µg/heart, 3 µg/heart (isolated heart [2]): 14%; inhibition at 3 µg/heart (isolated heart [2]): 1%
130 | CCCCCCOC(=O)C1=C(C)NC(C)=C(C(=O)NCCC)C1c1ccccc1[N+](=O)[O-] (centres unmarked) [Example 41] | – | – | – | – | –
380 | CCCCCCCOC(=O)C1=C(C)NC(C)=C(C(=O)NCCC)C1c1ccccc1[N+](=O)[O-] (centres unmarked) [Example 42] | – | – | – | – | –
700 | CCC(CC)OC(=O)C1=C(C)NC(C)=C(C(=O)NC(C)C)C1c1ccccc1[N+](=O)[O-] (centres unmarked) [Example 50] | – | – | – | – | –
150 | CCCOC(=O)C1=C(C)NC(C)=C(C(=O)NC(C)C)C1c1cccc([N+](=O)[O-])c1 (centres unmarked) [Example 62] | – | – | – | – | activation at 3 µg/heart (isolated heart [2]): 20%; inhibition at 3 µg/heart, 3 µg/heart (isolated heart [2]): 2%; inhibition at 3 µg/heart (isolated heart [2]): 6%
– | CC1=C(C(=O)NC(C)C)C(c2cccc([N+](=O)[O-])c2)C(C(=O)OC(C)C)=C(C)N1 (centres unmarked) [Example 63] | – | – | – | – | Recovering time [1]: 1.5 h; Time for recovering 1/2 of max. hypotension [1]: 1.0 h; Time until reaching to max. hypotension [1]: 15 min; Maximum hypotension [1]: 7 mmHg

EC50 (isolated aorta) [nM] | Compound | Coronary perfusion Duration (isolated heart [3]; 3 μg/heart) [min] | activation at 3 µg/heart (isolated heart [3]; 3 μg/heart) [%] | inhibition at 3 µg/heart (isolated heart [3]; [4]) [%] | inhibition at 3 µg/heart (isolated heart [3]; [5]) [%] | also measured
70 | CCCCCOC(=O)C1=C(C)NC(C)=C(C(=O)NC(C)C)C1c1cccc([N+](=O)[O-])c1 (centres unmarked) [Example 66] | – | – | – | – | relaxing / vasodilating activity on isolated aorta (in words) (isolated aorta): the same or more potent activity; activation at 3 µg/heart (isolated heart [2]): 16%; inhibition at 3 µg/heart, 3 µg/heart (isolated heart [2]): 15%; inhibition at 3 µg/heart (isolated heart [2]): 13%
570 | CCCCNC(=O)C1=C(C)NC(C)=C(C(=O)OCCCC)C1c1cccc([N+](=O)[O-])c1 (centres unmarked) [Example 69] | – | – | – | – | –
– | COC(=O)C1=C(C)NC(C)=C(C(=O)NC2CC2)C1c1ccccc1[N+](=O)[O-] (centres unmarked) [Example 80, methyl 2,6-dimethyl-3-cyclopropylaminocarbonyl-4-(o-nitrophenyl)-1,4-dihydropyridine-5-carboxylate] | < 10 | 25 | 15 | 5 | –
– | CCCCCCCOC(=O)C1=C(C)NC(C)=C(C(=O)NC2CC2)C1c1ccccc1[N+](=O)[O-] (centres unmarked) [Example 81, n-heptyl 2,6-dimethyl-3-cyclopropylaminocarbonyl-4-(o-nitrophenyl)-1,4-dihydropyridine-5-carboxylate] | 10 to 15 | 15 | 15 | 0 | –
– | COC(=O)C1=C(C)NC(C)=C(C(=O)NC2CCCC2)C1c1ccccc1[N+](=O)[O-] (centres unmarked) [Example 84, methyl 2,6-dimethyl-3-cyclopentylaminocarbonyl-4-(o-nitrophenyl)-1,4-dihydropyridine-5-carboxylate] | – | – | – | – | Coronary perfusion Duration (isolated heart [3]; 1 μg/heart): 20 to 30 min; activation at 1 µg/heart (isolated heart [3]; 1 μg/heart): 30%; inhibition at 1 µg/heart (isolated heart [3]; [6]): 15%; inhibition at 1 µg/heart (isolated heart [3]; [7]): 20%
– | CCCCCCCCOC(=O)C1=C(C)NC(C)=C(C(=O)NC2CCCC2)C1c1ccccc1[N+](=O)[O-] (centres unmarked) [Example 86, n-octyl 2,6-dimethyl-3-cyclopentylaminocarbonyl-4-(o-nitrophenyl)-1,4-dihydropyridine-5-carboxylate] | – | – | – | – | Coronary perfusion Duration (isolated heart [3]; 1 μg/heart): 60 min; activation at 1 µg/heart (isolated heart [3]; 1 μg/heart): 50%; inhibition at 1 µg/heart (isolated heart [3]; [6]): 15%; inhibition at 1 µg/heart (isolated heart [3]; [7]): 20%
– | CCCCCCCCCOC(=O)C1=C(C)NC(C)=C(C(=O)NC2CCCC2)C1c1ccccc1[N+](=O)[O-] (centres unmarked) [Example 87, n-nonyl 2,6-dimethyl-3-cyclopentylaminocarbonyl-4-(o-nitrophenyl)-1,4-dihydropyridine-5-carboxylate] | – | – | – | – | Coronary perfusion Duration (isolated heart [3]; 1 μg/heart): 60 min; activation at 1 µg/heart (isolated heart [3]; 1 μg/heart): 40%; inhibition at 1 µg/heart (isolated heart [3]; [6]): 15%; inhibition at 1 µg/heart (isolated heart [3]; [7]): 5%
– | CCOC(=O)C1=C(C)NC(C)=C(C(=O)NC2CC2)C1c1ccccc1[N+](=O)[O-] (centres unmarked) [Example 88] | < 10 | 35 | 30 | 30 | –
– | CCCOC(=O)C1=C(C)NC(C)=C(C(=O)NC2CC2)C1c1ccccc1[N+](=O)[O-] (centres unmarked) [Example 89] | < 10 | 30 | 35 | 30 | –
– | CC1=C(C(=O)NC2CC2)C(c2ccccc2[N+](=O)[O-])C(C(=O)OC(C)C)=C(C)N1 (centres unmarked) [Example 90] | < 10 | 15 | 10 | 5 | –
– | CCCCOC(=O)C1=C(C)NC(C)=C(C(=O)NC2CC2)C1c1ccccc1[N+](=O)[O-] (centres unmarked) [Example 91] | < 10 | 20 | 35 | 10 | –
– | CC1=C(C(=O)NC2CC2)C(c2ccccc2[N+](=O)[O-])C(C(=O)OCC(C)C)=C(C)N1 (centres unmarked) [Example 92] | < 10 | 10 | 10 | 5 | –
– | CCCCCOC(=O)C1=C(C)NC(C)=C(C(=O)NC2CC2)C1c1ccccc1[N+](=O)[O-] (centres unmarked) [Example 93] | 20 | 20 | 20 | 15 | –
– | CC1=C(C(=O)NC2CC2)C(c2ccccc2[N+](=O)[O-])C(C(=O)OCCC(C)C)=C(C)N1 (centres unmarked) [Example 94] | < 10 | 15 | 10 | 0 | –
– | CCCCCCOC(=O)C1=C(C)NC(C)=C(C(=O)NC2CC2)C1c1ccccc1[N+](=O)[O-] (centres unmarked) [Example 95] | 10 to 15 | 20 | 15 | 10 | –
– | CC1=C(C(=O)NC2CC2)C(c2ccccc2[N+](=O)[O-])C(C(=O)OCCCC(C)C)=C(C)N1 (centres unmarked) [Example 96] | < 10 | 20 | 10 | 0 | –
